Laboratory results: patent publication US20240376094A2, “SELECTIVE BCL-XL PROTAC COMPOUNDS AND METHODS OF USE” (Les Laboratoires Servier, priority 2021, published 2024)

What was measured:
endogenous BCL-xL [1] = molecular target: T1, endogenous BCL-xL (Homo sapiens, UniProt Q07817); assay: Degradation of endogenous BCL-xL in NCI-H1650 (ProteinSimple Jess); assay type: cell-based; conditions: NCI-H1650, dose 10 nM, 24 hours
T1 construct: endogenous in cells; host or cells: COR-L105 (ECACC No. 92031918); NCI-H1650 (ATCC No. CRL-5883)
T1 sequence (Q07817 whole entry): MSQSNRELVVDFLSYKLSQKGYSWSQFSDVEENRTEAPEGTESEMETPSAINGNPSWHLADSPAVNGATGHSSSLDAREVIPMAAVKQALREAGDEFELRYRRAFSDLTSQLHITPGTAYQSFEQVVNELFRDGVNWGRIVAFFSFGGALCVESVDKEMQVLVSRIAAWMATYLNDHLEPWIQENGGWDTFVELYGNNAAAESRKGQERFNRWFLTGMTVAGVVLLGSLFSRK
Procedure: The BCL-xL degrader low molecular weight compounds were tested against two endogenous cancer cell lines: • COR-L105: ECACC No. 92031918 cultured in RPMI-1640+10% FBS • NCI-H1650: (ATCC No. CRL-5883 cultured in RPMI-1640+10% FBS
The ability of the BCL-xL degrader low molecular weight compounds to degrade endogenous BCL-xL was assessed using the ProteinSimple 2-40 kDa Jess Separation Module.
Cell lines were cultured in media that is optimal for their growth at 5% CO2, 37° C. in a tissue culture incubator. Prior to seeding for the degradation assay, the cells were split at least 2 days before the assay to ensure optimal growth density. On the day of seeding, adherent cells were lifted off tissue culture flasks using 0.25% trypsin. Cell viability and cell density were determined using a cell counter (Vi-Cell XR Cell Viability Analyzer, Beckman Coulter). Cells with higher than 85% viability were seeded for the assay.
The COR-L105 and the NCI-H1650 cell line were seeded in 6-well clear TC-treated multiple well plates (Costar® cat. #3516). Cells were seeded at a density of 2,000,000 cells per well in 2.5 mL of standard growth media. Plates were incubated at 5% CO2, 37° C. overnight in a tissue culture incubator. On the day of dosing, BCL-xL degrader low molecular weight compounds and a BCL-xL inhibitor control were prepared at 6× in standard growth media. […] A control well of untreated cells was also included in the study. Each drug concentration was tested in singlet. Plates were incubated at 5% CO2, 37° C. for 24 hours in a tissue culture incubator.
After 24 hours, the adherent cells were lifted off tissue culture plates using 0.25% trypsin. Standard growth media was added to quench the trypsin and centrifuged for 5 minutes at 1500 rpm. […]
Protein was quantified using a Pierce™ BCA Protein Assay Kit (ThermoFisher, cat #23225) following the manufacturer's instructions. […] A SpectraMax M Series Multi-Mode Microplate Reader was used to measure the absorbance at 562 nm. […] Only values that fell within the range of the standard curve were accepted for quantification. […]

endogenous BCL-xL [2] = molecular target: T1, endogenous BCL-xL; assay: Degradation of endogenous BCL-xL in COR-L105 (ProteinSimple Jess); assay type: cell-based; conditions: COR-L105, 24 h, COR-L105, dose 300 nM, read-out: % BCL-xL vs. Untreated, COR-L105
Summary of the method: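 COR-L105 cells (2,000,000/well) treated 24 h at 37 °C with compound at 100–300 nM final, singlet, alongside untreated cells. RIPA lysates normalized by BCA to 1.5 mg/mL, then BCL-xL detected by capillary immunoassay (2–40 kDa Jess) comparing treated with untreated lysates.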

% BCL-xL vs. Untreated, NCI-H1650 (endogenous BCL-xL [1]) [%] | remaining activity at 0.3 µM (endogenous BCL-xL [2]) [%] | Structure (SMILES)
16.23 | 22.6 | Cc1ncsc1-c1ccc([C@H](C)NC(=O)[C@@H]2C[C@@H](O)CN2C(=O)[C@@H](NC(=O)CCCCCCCCCCC(=O)N2CCN(CC#Cc3ccc(OCCCc4sc(N5CCCc6c5nnc(Nc5nc7ccccc7s5)c6C)nc4C(=O)O)c(F)c3)CC2)C(C)(C)C)cc1 [Example 46, 2-(3-(benzo[d]thiazol-2-ylamino)-4-methyl-6,7-dihydropyrido [2,3-c]pyridazin-8(5H)-yl)-5-(3-(2-fluoro-4-(3-(4-(12-(((S)-1-((2S,4R)-4-hydroxy-2-(((S)-1-(4-(4-methylthiazol-5-yl)phenyl)ethyl)carbamoyl)pyrrolidin-1-yl)-3,3-dimethyl-1-oxobutan-2-yl)amino)-12-oxododecanoyl)piperazin-1-yl)prop-1-yn-1-yl)phenoxy)propyl)thiazole-4-carboxylic acid]
1.05 | – | Cc1ncsc1-c1ccc(CNC(=O)[C@@H]2C[C@@H](O)CN2C(=O)[C@@H](NC(=O)CCCCCCCCCCC(=O)N2CCN(CC#Cc3ccc(OCCCc4sc(N5CCCc6c5nnc(Nc5nc7ccccc7s5)c6C)nc4C(=O)O)c(F)c3)CC2)C(C)(C)C)cc1 [Example 48, 2-(3-(benzo[d]thiazol-2-ylamino)-4-methyl-6,7-dihydropyrido [2,3-c]pyridazin-8(5H)-yl)-5-(3-(2-fluoro-4-(3-(4-(12-(((S)-1-((2S,4R)-4-hydroxy-2-((4-(4-methylthiazol-5-yl)benzyl)carbamoyl)pyrrolidin-1-yl)-3,3-dimethyl-1-oxobutan-2-yl)amino)-12-oxododecanoyl)piperazin-1-yl)prop-1-yn-1-yl)phenoxy)propyl)thiazole-4-carboxylic acid]
9.22 | 12.1 | Cc1ncsc1-c1ccc([C@H](C)NC(=O)[C@@H]2C[C@@H](O)CN2C(=O)[C@@H](NC(=O)CCCCCCCCCCCN2CCN(CC#Cc3ccc(OCCCc4sc(N5CCCc6c5nnc(Nc5nc7ccccc7s5)c6C)nc4C(=O)O)c(F)c3)CC2)C(C)(C)C)cc1 [Example 51, 2-(3-(benzo[d]thiazol-2-ylamino)-4-methyl-6,7-dihydropyrido [2,3-c]pyridazin-8(5H)-yl)-5-(3-(2-fluoro-4-(3-(4-(12-(((S)-1-((2S,4R)-4-hydroxy-2-(((S)-1-(4-(4-methylthiazol-5-yl)phenyl)ethyl)carbamoyl)pyrrolidin-1-yl)-3,3-dimethyl-1-oxobutan-2-yl)amino)-12-oxododecyl)piperazin-1-yl)prop-1-yn-1-yl)phenoxy)propyl)thiazole-4-carboxylic acid]
